Non-standard residues stand in square brackets, D forms with d. Residues, ends and D or L forms follow the SMILES beside them. pGlu = O=C1CC[C@@H](C(=O)O)N1
Test system: human islets
Experiment: Islet viability and morphology assessment (PI/HO or FDA, DTZ staining)
Type: cell-based
Conditions: 4 weeks in 3D hydrogel with 100 nM gastrin
Method: Islet cells were stained with 10 μg/mL propidium iodide (PI) (Millipore Sigma, St. Louis, MO, USA) and 10 μg/mL of Hoechst 33342 (HO) (Thermo Fisher Scientific, Waltham, MA) for 5 minutes at room temperature, washed with PBS, then placed on a 6-well plate. The images of PI/HO staining were taken under a IXDP50 Olympus fluorescent microscope with DP74 camera using a 4× objective lens (Olympus America). Viability was determined by the area of PI staining divided by the area of HO staining analyzed by CellSens software. For the experiment with gastrin culture, 0.5 μM Fluorescein diacetate (FDA) solution (Millipore Sigma) was used instead of HO to determine the viable total islets. The viability was determined by the area of PI staining divided by the total islet area analyzed by CellSens software. Islet morphology was evaluated by dithizone (DTZ) staining.

In the case of `CC(C)C[C@H](NC(=O)[C@H](Cc1c[nH]c2ccccc12)NC(=O)CNC(=O)[C@H](Cc1ccc(O)cc1)NC(=O)[C@H](C)NC(=O)[C@H](CCC(=O)O)NC(=O)[C@H](CCC(=O)O)NC(=O)[C@H](CCC(=O)O)NC(=O)[C@H](CCC(=O)O)NC(=O)[C@H](CCC(=O)O)NC(=O)[C@H](CC(C)C)NC(=O)[C@H](Cc1c[nH]c2ccccc12)NC(=O)[C@@H]1CCCN1C(=O)CNC(=O)[C@@H]1CCC(=O)N1)C(=O)N[C@@H](CC(=O)O)C(=O)N[C@@H](Cc1ccccc1)C(N)=O` [gastrin, [Leu15]-gastrin I] ([pGlu]GPWLEEEEEAYGWLDF-NH2), the islet viability is reported as 92±6%.

From US20230407265A1, “COMPOSITION AND METHODS FOR 3D CULTURE OF ISLET CELLS” (CITY OF HOPE, priority 2022, published 2023)
